Experimental data: patent US7244431B2, “Allergy vaccines and their preparation” (priority 2000, dated 2007)

Assays:
[1] = system: IgE antibodies in sera from birch pollen allergic patients; assay: ELISA detection of peptide- and rBet v 1-specific IgE antibodies; type: binding, human
How it was run: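 IgE binding detected by 1:1000 alkaline-phosphatase mouse monoclonal anti-human IgE after overnight 4 °C incubation with 1:3-diluted sera. Sera came from 60 birch pollen allergic patients (25 male, 35 female, age 19–60) and a non-atopic control.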

[2] = system: birch pollen allergic patients; assay: Skin prick testing of allergic patients; type: in vivo, human; conditions: 100 μg/ml
Protocol: SPTs were performed on the individuals forearms as described ([…]. et al. (1997) J. Clin Invest. 99, 1673-168; Dreborg S: (1989) J. Am. Acad. DerMatol. 21, 820-821). […] In addition standardized skin prick solutions (birch pollen extract and histamine) (Allergopharma, Reinbek, Germany) were tested. Reactions were recorded 20 minutes after SPT by photography and by transferring the ballpoint pen-surrounded wheal area with a scotch tape to paper.

[3] = NMR analysis for residual secondary or tertiary structure; type: physicochemical; conditions: water solution
Protocol: NMR was then used to check for residual secondary or tertiary structure. Compared to other spectroscopical approaches, this technique has the advantage that it provides positional information along the sequence.
Peptides were examined for tertiary and/or secondary structure by one and two-dimensional nuclear magnetic resonance (NMR) on a UNITY VARIAN 600 MHz spectrometer equipped with z-shielded gradient coils using 0.8-1.0 mM samples in 90% H2O/10% D2O, 20 mM potassium phosphate buffer pH 7.0, at 20° C. […] Mixing times used were 70 ms and 150 or 200 ms for TOCSY and NOESY experiments, respectively.
The absence of ring current shifted peaks in the region of the spectra below 0.5 ppm typical of well folded proteins is also a feature common to the spectra of the Bet v 1 peptides (data not shown). […] This peptide (P5), that in the Bet v 1 structure spans the whole C-terminal helix probably tends to form helical structures that aggregate in water solution.

Sequence: CKAEQVKASKEMGETLLRAVESYLLAHSDAYN [Peptide P5, Bet v 1-derived synthetic peptide, position aa 130-160, one cysteine added]
- IgE (OD) ([1]; serum of NHS, non-allergic control individual): — (Dashes indicate reactivities below the cut-off level (OD=0.050))
- IgE (OD) ([1]; serum of patient 1): — (Dashes indicate reactivities below the cut-off level (OD=0.050))
- IgE (OD) ([1]; serum of patient 2): — (Dashes indicate reactivities below the cut-off level (OD=0.050))
- IgE (OD) ([1]; serum of patient 3): — (Dashes indicate reactivities below the cut-off level (OD=0.050))
- IgE (OD) ([1]; serum of patient 4): — (Dashes indicate reactivities below the cut-off level (OD=0.050))
- IgE (OD) ([1]; serum of patient 5): — (Dashes indicate reactivities below the cut-off level (OD=0.050))
- IgE (OD) ([1]; serum of patient 6): — (Dashes indicate reactivities below the cut-off level (OD=0.050))
- IgE (OD) ([1]; serum of patient 7): — (Dashes indicate reactivities below the cut-off level (OD=0.050))
- IgE (OD) ([1]; serum of patient 8): — (Dashes indicate reactivities below the cut-off level (OD=0.050))
- IgE (OD) ([1]; serum of patient 9): — (Dashes indicate reactivities below the cut-off level (OD=0.050))
- IgE (OD) ([1]; serum of patient 10): — (Dashes indicate reactivities below the cut-off level (OD=0.050))
- IgE (OD) ([1]; serum of patient 11): — (Dashes indicate reactivities below the cut-off level (OD=0.050))
- IgE (OD) ([1]; serum of patient 12): — (Dashes indicate reactivities below the cut-off level (OD=0.050))
- IgE (OD) ([1]; serum of patient 13): — (Dashes indicate reactivities below the cut-off level (OD=0.050))
- IgE (OD) ([1]; serum of patient 14): — (Dashes indicate reactivities below the cut-off level (OD=0.050))
- IgE (OD) ([1]; serum of patient 15): — (Dashes indicate reactivities below the cut-off level (OD=0.050))
- IgE (OD) ([1]; serum of patient 16): — (Dashes indicate reactivities below the cut-off level (OD=0.050))
- IgE (OD) ([1]; serum of patient 17): — (Dashes indicate reactivities below the cut-off level (OD=0.050))
- IgE (OD) ([1]; serum of patient 18): — (Dashes indicate reactivities below the cut-off level (OD=0.050))
- IgE (OD) ([1]; serum of patient 19): — (Dashes indicate reactivities below the cut-off level (OD=0.050))
- IgE (OD) ([1]; serum of patient 20): — (Dashes indicate reactivities below the cut-off level (OD=0.050))
- IgE (OD) ([1]; serum of patient 21): — (Dashes indicate reactivities below the cut-off level (OD=0.050))
- IgE (OD) ([1]; serum of patient 22): — (Dashes indicate reactivities below the cut-off level (OD=0.050))
- IgE (OD) ([1]; serum of patient 23): — (Dashes indicate reactivities below the cut-off level (OD=0.050))
- IgE (OD) ([1]; serum of patient 24): — (Dashes indicate reactivities below the cut-off level (OD=0.050))
- IgE (OD) ([1]; serum of patient 25): — (Dashes indicate reactivities below the cut-off level (OD=0.050))
- IgE (OD) ([1]; serum of patient 26): — (Dashes indicate reactivities below the cut-off level (OD=0.050))
- IgE (OD) ([1]; serum of patient 27): — (Dashes indicate reactivities below the cut-off level (OD=0.050))
- IgE (OD) ([1]; serum of patient 28): — (Dashes indicate reactivities below the cut-off level (OD=0.050))
- IgE (OD) ([1]; serum of patient 29): — (Dashes indicate reactivities below the cut-off level (OD=0.050))
- IgE (OD) ([1]; serum of patient 30): — (Dashes indicate reactivities below the cut-off level (OD=0.050))
- IgE (OD) ([1]; serum of patient 31): — (Dashes indicate reactivities below the cut-off level (OD=0.050))
- IgE (OD) ([1]; serum of patient 32): — (Dashes indicate reactivities below the cut-off level (OD=0.050))
- IgE (OD) ([1]; serum of patient 33): — (Dashes indicate reactivities below the cut-off level (OD=0.050))
- IgE (OD) ([1]; serum of patient 34): — (Dashes indicate reactivities below the cut-off level (OD=0.050))
- IgE (OD) ([1]; serum of patient 35): — (Dashes indicate reactivities below the cut-off level (OD=0.050))
- IgE (OD) ([1]; serum of patient 36): — (Dashes indicate reactivities below the cut-off level (OD=0.050))
- IgE (OD) ([1]; serum of patient 37): — (Dashes indicate reactivities below the cut-off level (OD=0.050))
- IgE (OD) ([1]; serum of patient 38): — (Dashes indicate reactivities below the cut-off level (OD=0.050))
- IgE (OD) ([1]; serum of patient 39): — (Dashes indicate reactivities below the cut-off level (OD=0.050))
- IgE (OD) ([1]; serum of patient 40): — (Dashes indicate reactivities below the cut-off level (OD=0.050))
- IgE (OD) ([1]; serum of patient 41): — (Dashes indicate reactivities below the cut-off level (OD=0.050))
- IgE (OD) ([1]; serum of patient 42): — (Dashes indicate reactivities below the cut-off level (OD=0.050))
- IgE (OD) ([1]; serum of patient 43): — (Dashes indicate reactivities below the cut-off level (OD=0.050))
- IgE (OD) ([1]; serum of patient 44): — (Dashes indicate reactivities below the cut-off level (OD=0.050))
- IgE (OD) ([1]; serum of patient 45): — (Dashes indicate reactivities below the cut-off level (OD=0.050))
- IgE (OD) ([1]; serum of patient 46): — (Dashes indicate reactivities below the cut-off level (OD=0.050))
- IgE (OD) ([1]; serum of patient 47): — (Dashes indicate reactivities below the cut-off level (OD=0.050))
- IgE (OD) ([1]; serum of patient 48): — (Dashes indicate reactivities below the cut-off level (OD=0.050))
- IgE (OD) ([1]; serum of patient 49): — (Dashes indicate reactivities below the cut-off level (OD=0.050))
- IgE (OD) ([1]; serum of patient 50): — (Dashes indicate reactivities below the cut-off level (OD=0.050))
- IgE (OD) ([1]; serum of patient 51): — (Dashes indicate reactivities below the cut-off level (OD=0.050))
- IgE (OD) ([1]; serum of patient 52): — (Dashes indicate reactivities below the cut-off level (OD=0.050))
- IgE (OD) ([1]; serum of patient 53): — (Dashes indicate reactivities below the cut-off level (OD=0.050))
- IgE (OD) ([1]; serum of patient 54): — (Dashes indicate reactivities below the cut-off level (OD=0.050))
- IgE (OD) ([1]; serum of patient 55): — (Dashes indicate reactivities below the cut-off level (OD=0.050))
- IgE (OD) ([1]; serum of patient 56): — (Dashes indicate reactivities below the cut-off level (OD=0.050))
- IgE (OD) ([1]; serum of patient 57): — (Dashes indicate reactivities below the cut-off level (OD=0.050))
- IgE (OD) ([1]; serum of patient 58): — (Dashes indicate reactivities below the cut-off level (OD=0.050))
- IgE (OD) ([1]; serum of patient 59): — (Dashes indicate reactivities below the cut-off level (OD=0.050))
- IgE (OD) ([1]; serum of patient 60): — (Dashes indicate reactivities below the cut-off level (OD=0.050))
- mean wheal diameter ([2]; individual 1): 0 mm
- mean wheal diameter ([2]; individual 2): 0 mm
- mean wheal diameter ([2]; individual 3): 0 mm
- mean wheal diameter ([2]; individual 4): 0 mm
- mean wheal diameter ([2]; individual 5): 0 mm
- mean wheal diameter ([2]; individual 6 (allergic, without birch pollen allergy)): 0 mm
- aggregation (NMR) [3]: unusually broad resonances suggesting aggregation
